Results from ChEMBL document CHEMBL1201862, “PubChem BioAssay data set” (2004).
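Cultured in 96-well plates, cells were exposed to test compound for 48 hours across five concentrations. Abbreviation: GI50, concentration required for 50% inhibition of growth.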 The source made the active and inactive calls. Rule as the data show it: active = GI50 up to about 1.1 µM and inactive = higher.

Legend:
Test in all cases: NCI tumour cell line growth inhibition, 48 h
[1] = tested on: OVCAR-3
[2] = tested on: A549
[3] = tested on: DLD-1
[4] = tested on: HOP-62
[5] = tested on: MOLT-4
[6] = tested on: MCF7
[7] = tested on: DMS-114
[8] = tested on: NCI-H460
[9] = tested on: SF-539
[10] = tested on: SK-MEL-2
[11] = tested on: HCT-116
[12] = tested on: HCC 2998
[13] = tested on: CAKI-1
[14] = tested on: HL-60
[15] = tested on: KM12
[16] = tested on: SR
[17] = tested on: 786-0
[18] = tested on: Hs-578T
[19] = tested on: MDA-N

| Structure (SMILES) | GI50 [1] | GI50 [2] | GI50 [3] | GI50 [4] | GI50 [5] | GI50 [6] | GI50 [7] | GI50 [8] | GI50 [9] | GI50 [10] | GI50 [11] | GI50 [12] | GI50 [13] | GI50 [14] | GI50 [15] | GI50 [16] | GI50 [17] | GI50 [18] | GI50 [19] |
| --- | --- | --- | --- | --- | --- | --- | --- | --- | --- | --- | --- | --- | --- | --- | --- | --- | --- | --- | --- |
| CN(C)C(=O)/C=C/c1c[nH]c(=O)[nH]c1=O | > 500 µM (inactive) | > 500 µM (inactive) | > 500 µM (inactive) | > 500 µM (inactive) | > 500 µM (inactive) | > 500 µM (inactive) | > 500 µM (inactive) | > 500 µM (inactive) | > 500 µM (inactive) | > 500 µM (inactive) | > 500 µM (inactive) | > 500 µM (inactive) | > 500 µM (inactive) | 296 µM (inactive) | > 500 µM (inactive) | – | – | – | – |
| CCOC(=O)c1ncoc1[C@H]1COC(C)(C)O1 | > 100 µM (inactive) | > 100 µM (inactive) | > 100 µM (inactive) | > 100 µM (inactive) | > 100 µM (inactive) | – | > 100 µM (inactive) | > 100 µM (inactive) | > 100 µM (inactive) | > 100 µM (inactive) | > 100 µM (inactive) | > 100 µM (inactive) | > 100 µM (inactive) | > 100 µM (inactive) | – | > 100 µM (inactive) | – | – | – |
| CCOC(=O)C(C)(C)C(O)C(C)C (stereo not drawn) | > 100 µM (inactive) | > 100 µM (inactive) | – | > 100 µM (inactive) | > 100 µM (inactive) | > 100 µM (inactive) | – | > 100 µM (inactive) | > 100 µM (inactive) | > 100 µM (inactive) | > 100 µM (inactive) | > 100 µM (inactive) | > 100 µM (inactive) | > 100 µM (inactive) | > 100 µM (inactive) | > 100 µM (inactive) | > 100 µM (inactive) | > 100 µM (inactive) | > 100 µM (inactive) |
| CN(CCCNC(=O)c1nn(-c2ccccc2)c2c1ccc1ccccc12)CCCNC(=O)c1nn(-c2ccccc2)c2c1ccc1ccccc12 | 1.5 µM (inactive) | 1.84 µM (inactive) | – | 1.86 µM (inactive) | 1.98 µM (inactive) | 1.8 µM (inactive) | – | 1.76 µM (inactive) | 1.96 µM (inactive) | 1.69 µM (inactive) | 1.82 µM (inactive) | 1.31 µM (inactive) | 1.61 µM (inactive) | 0.221 µM (active) | 2.16 µM (inactive) | 1.24 µM (inactive) | 2.01 µM (inactive) | 2.58 µM (inactive) | 1.68 µM (inactive) |
| CN(C)/C(=N\C#N)N(Cc1ccccc1)Cc1ccccc1 | > 100 µM (inactive) | > 100 µM (inactive) | 43.2 µM (inactive) | > 100 µM (inactive) | – | – | – | 17.7 µM (inactive) | > 100 µM (inactive) | > 100 µM (inactive) | 53.5 µM (inactive) | 72.1 µM (inactive) | > 100 µM (inactive) | 44.3 µM (inactive) | > 100 µM (inactive) | – | > 100 µM (inactive) | – | – |
| C=CCNC(=O)NNC(O)(C(=O)OCC)C(F)(F)F (stereo not drawn) | > 100 µM (inactive) | > 100 µM (inactive) | – | > 100 µM (inactive) | > 100 µM (inactive) | > 100 µM (inactive) | – | > 100 µM (inactive) | > 100 µM (inactive) | > 100 µM (inactive) | > 100 µM (inactive) | > 100 µM (inactive) | > 100 µM (inactive) | > 100 µM (inactive) | > 100 µM (inactive) | > 100 µM (inactive) | > 100 µM (inactive) | > 100 µM (inactive) | > 100 µM (inactive) |
| NC(=O)c1csc(CCCCCCc2nc(C(N)=O)cs2)n1 | > 100 µM (inactive) | > 100 µM (inactive) | > 73.6 µM (inactive) | > 100 µM (inactive) | > 100 µM (inactive) | – | > 71.3 µM (inactive) | > 100 µM (inactive) | > 100 µM (inactive) | > 100 µM (inactive) | > 56.2 µM (inactive) | > 100 µM (inactive) | > 100 µM (inactive) | > 100 µM (inactive) | > 59.4 µM (inactive) | > 100 µM (inactive) | > 45.3 µM (inactive) | – | – |
| O=C(O)c1cc2cc(OCc3ccccc3)ccc2[nH]1 | > 100 µM (inactive) | > 100 µM (inactive) | – | > 100 µM (inactive) | > 100 µM (inactive) | 88.1 µM (inactive) | – | > 100 µM (inactive) | > 100 µM (inactive) | 61.7 µM (inactive) | > 100 µM (inactive) | > 100 µM (inactive) | > 100 µM (inactive) | > 100 µM (inactive) | > 100 µM (inactive) | > 100 µM (inactive) | > 100 µM (inactive) | 4.72 µM (inactive) | > 100 µM (inactive) |
| Cc1ccc2nc(-c3ccc(C(C)(C)C)cc3)oc(=O)c2c1 | 21.4 µM (inactive) | 14.6 µM (inactive) | – | 27.9 µM (inactive) | 17 µM (inactive) | 23.9 µM (inactive) | – | 16.2 µM (inactive) | 18.2 µM (inactive) | 26.7 µM (inactive) | 17 µM (inactive) | 14.6 µM (inactive) | 19.4 µM (inactive) | 16.6 µM (inactive) | 7.38 µM (inactive) | 21.2 µM (inactive) | 25.1 µM (inactive) | 27.7 µM (inactive) | 22.9 µM (inactive) |
